In US20230146870A1, “METHOD TO QUANTIFY AFFINITY AND SELECTIVITY OF SMALL MOLECULES FOR PROTEINS IN LIVING CELLS” (Ohio State Innovation Foundation, priority 2021, published 2023):
Several values for one entry are separate records, joined by “and”; a condition that tells them apart may be missing. Identical values can stand only once. Like-named read-outs stand apart in the source and are kept apart here.

Legend:
[1] = test system: cellular microtubules (HeLa cells); test: Pilot screen of NCI Diversity Set VI: inhibition of binding of PB-GABA-Taxol, with dose-response validation
[2] = test system: microtubules in living HeLa cells; test: Allosteric modulator assay with PB-GABA-Taxol in living HeLa cells (cellular Kb, α); conditions: PB-GABA-Taxol 1.5 μM, verapamil 100 μM, 3 h, 37° C.
From the text: In this model, two compounds that engage tubulin at different binding sites influence the binding of each other through cooperativity. […] Smaller cooperativity factors (α) represent stronger effects on binding of the orthosteric probe. For these allosteric modulators, the apparent cellular affinity was defined as Kb, and the mathematical relationship between Kb and α is provided (equation 3).
The experimental method for allosteric binding assays was identical to the competition binding assays described previously. However, because it is inaccurate to describe an allosteric modulator with a competitive inhibitory constant (Ki), we used an allosteric modulator model (Kb) for data analysis. […] The observed occupancy of the orthosteric ligand is defined as KApp and is determined by the equilibrium dissociation constant of the orthosteric ligand (Kd), the concentration of allosteric ligand, its affinity for the receptor (Kb), and the strength by which the allosteric ligand affects receptor binding to the orthosteric ligand as defined by the cooperativity factor (a).

[3] = test system: microtubule network of HeLa cells (mScarlet-α-Tubulin); test: Confocal microscopy of HeLa cells transfected with mScarlet-α-Tubulin; type: cell-based; conditions: 1 h at 37° C.
Description: (FIG. 28C) Characterization of fluorescent microtubule phenotypes in HeLa cells transiently transfected with mScarlet-a-Tubulin and treated with the microtubule modulators (1 h at 37° C.). […] Scale bars=10 μm.
Cells were washed with PBS before treatment with PB-GABA-Taxol (100 nM) and (±)-verapamil hydrochloride (100 μM), with or without paclitaxel (10 μM) as a competitor, in phenol red-free DMEM supplemented with 10% FBS. Cells were incubated at 37° C. for 3 h prior to imaging by confocal microscopy. For experiments using HeLa cells transfected with mScarlet-α-tubulin, transient transfection was performed using a Invitrogen Lipofectamine 3000 Transfection kit (Thermo, L3000-075). Transfection used a 1× dose of lipid in OptiMEM (4% FBS) for 18 hours before washing of cells with PBS and treatment with the microtubule modulator for 1 h at 37° C.

[4] = biological target: crosslinked / purified microtubules; conditions: previously reported; read-out: biochemical Kd for microtubules; cited from earlier work
HeLa cells [5] = test: Cellular viability of trypsinized HeLa cells under binding assay conditions; type: cell-based; conditions: 180 min
Description: Samples contained PB-GABA-Taxol (1.5 μM) unless otherwise noted. Viability was analyzed by flow cytometry at the time points shown. Dead cells were identified by changes in light scattering and staining with propidium iodide (3 μM). Changes in viability were less than 10% at 180 min under the conditions used for saturation binding and competitive binding assays, even in the presence of 100 μM paclitaxel.
For saturation binding assays, HeLa cells were incubated with PB-GABA-Taxol at 37° C. for 180 min in the presence of verapamil (100 μM).

HeLa cells [6] = test: Time to equilibrium / cellular uptake of PB-GABA-Taxol by flow cytometry; conditions: probe 1.5 μM
Description: Tubes were incubated in a plate shaker, and at each time point 150 pL of cells were analyzed, in triplicate, in wells containing propidium iodide (3 μM final concentration) to identify live cells by flow cytometry. Median pacific blue fluorescence was plotted as a function of time and half-time measurements were determined using an Exponential One-phase association model (GraphPad Prism 9).

[7] = test system: T1, microtubules in living HeLa cells; test: Saturation binding of PB-GABA-Taxol in living HeLa cells by flow cytometry
T1 construct: rows headed: PB-GABA-Taxol molecules/cell at saturation; other: calibration beads, flow cytometry; other: HeLa cell volume 4.5; cellular Kd of PB-GABA-Taxol for microtubules; other: HeLa cells, 4% FBS, 37° C., verapamil 100 μM, 3 h; other: 10% FBS vs
Description: To quantify the affinity of PB-GABA-Taxol for microtubules in living cells (cellular Kd), we developed the saturation binding method shown in FIG. 3. In this assay the cellular Kd was measured by varying the concentration of the fluorescent probe added to cells at equilibrium as established by kinetic assays of probe uptake. Total binding of this probe to specific and non-specific sites in cells in the presence of the efflux inhibitor verapamil was determined by flow cytometry. Non-specific binding was quantified separately by addition of excess paclitaxel with the probe under the same conditions. Subtraction of the linear non-specific binding contribution from the total binding curve was used analyze specific binding of the probe to tubulin of microtubules. […]
OptiMEM medium containing 4% FBS was prepared as 2× stock solutions of different concentrations of PB-GABA-Taxol by serial dilution (final [DMSO]=1.2%). […] The percentage of non-specific binding was determined as non-specific binding divided by total binding. The signal window (SW) was calculated as previously described^2: SW=[(mean top (maximum) signal−mean bottom (minimum) signal)−(3)*(SD top signal+SD bottom signal)]/(SD top signal), where SD=standard deviation.

[8] = Cytotoxicity assay, 48 h, flow cytometry; type: cell-based; conditions: human, HeLa cells
Description: Trypsinized HeLa cells were resuspended at 40,000 cells/mL in DMEM medium containing 10% FBS and seeded at 8,000 cells/200 μL/well in a treated 96-well plate. The cells were incubated for 16 h at 37° C. The medium was removed and DMEM medium containing 10% FBS treated with compounds (prepared as 3-fold serial dilutions, 0.1% DMSO content) was added. Cells were treated for 48 h at 37° C. before removal of treated medium, washing cells with PBS (100 μL), and addition of Trypsin-EDTA (50 μL) for 10 min at 37° C. Trypsin was neutralized and cells resuspended by addition of 100 μL of complete medium treated with propidium iodide (final concentration 3 μM). Cellular viabilities were analyzed by gating of cells that lack fluorescence of propidium iodide by flow cytometry.

[9] = test system: HEK293 cells expressing PKCβI-mVenus; test: Kinetics of uptake of probes in HEK293 cells transiently transfected with PKCβI-mVenus; type: cell-based; conditions: probe 1 μM, room temperature, BIM1 2 μM, 4% FBS
Description: Cells were treated with probes and analyzed by flow cytometry. […] [BIM1]=2 μM. [FBS]=4%.
(§1) To investigate the potential for quantitative analysis of binding to PKCs expressed in cells, we evaluated whether 1-3 could readily achieve equilibrium, which is necessary for measurements of cellular equilibrium dissociation constants (Kd).
The cells were re-suspended in fresh reduced serum media lacking antibiotics (4% FBS) at a cell density of ˜500,000 cells per mL and were added to a 96-well plate (100 μL per well). […] Fluorescent probes were prepared as absorbance-normalized 1 mM DMSO stock solutions and diluted into reduced serum DMEM media lacking antibiotics (4% FBS) to achieve a final concentration of the probe of 1 μM ([…]). [BIM1]=2 μM. After addition of probes, cells were analyzed at room temperature every 5 min as singletons. Living cells with the greatest green fluorescence from expression of mVenus (top 20%, transfected) and the lowest green fluorescence (bottom 20%, non-transfected) were gated to obtain median PB450 values of uptake of the fluorescent probes. For the slower kinetics of uptake of probe 3, cells were analyzed every 20 min in triplicate. These curves were fitted with a one-phase association model (GraphPad Prism 9) to determine t1/2 values.

PKCβI-mVenus = biological target: T2, PKCβI-mVenus (Mus musculus, UniProt P68404); test: Confocal microscopy of translocation of PKCβI-mVenus in HEK293 cells; type: cell-based; conditions: 2 μM, 2 h
T2 construct: we generated expression vectors for eight full-length mouse isozymes; expressed in transfected cells; host or cells: HEK293 (ATCC CRL-1573), transient transfection with CMV-PKC betaI-mVenus-N1
T2 sequence (P68404 whole entry): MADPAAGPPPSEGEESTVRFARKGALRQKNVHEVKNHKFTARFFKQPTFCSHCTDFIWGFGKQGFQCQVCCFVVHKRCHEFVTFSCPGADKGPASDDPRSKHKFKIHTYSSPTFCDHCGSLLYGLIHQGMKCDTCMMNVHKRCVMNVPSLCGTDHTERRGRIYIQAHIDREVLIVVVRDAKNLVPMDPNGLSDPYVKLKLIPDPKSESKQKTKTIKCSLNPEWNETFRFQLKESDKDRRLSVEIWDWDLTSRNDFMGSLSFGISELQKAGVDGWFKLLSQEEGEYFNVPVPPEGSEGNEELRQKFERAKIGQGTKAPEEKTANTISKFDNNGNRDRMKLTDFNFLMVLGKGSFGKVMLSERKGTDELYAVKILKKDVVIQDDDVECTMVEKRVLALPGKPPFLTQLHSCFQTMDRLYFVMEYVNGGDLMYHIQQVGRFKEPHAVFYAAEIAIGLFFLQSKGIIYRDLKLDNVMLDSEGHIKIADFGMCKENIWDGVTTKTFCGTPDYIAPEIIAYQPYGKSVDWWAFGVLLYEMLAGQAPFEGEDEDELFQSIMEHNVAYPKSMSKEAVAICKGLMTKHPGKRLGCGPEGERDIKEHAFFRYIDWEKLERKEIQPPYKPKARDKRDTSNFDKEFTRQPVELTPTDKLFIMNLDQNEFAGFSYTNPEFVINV
Description: FIGS. 36A-36D provide confocal and DIC micrographs of living HEK293 cells transiently transfected to express PKCβI-mVenus. […] Scale bars=10 microns.
This IRES vector was derived from a previously reported^52 variant encoding the somewhat less fluorescent protein Venus.
Living cells cultured on an 8-well chamber glass slide (Ibidi μ-Slide, 300 μL, 100,000 cells/well) were imaged with an inverted Leica TCS SP8 confocal laser-scanning microscope (63× oil-immersion objective). Fluorescent probes were excited at 405 nm and mVenus was excited at 488 nm. Emitted photons were collected from 425-500 nm and 500-650 nm. For imaging, transiently transfected HEK293 cells in complete medium (10% FBS) were plated on the Ibidi μ-Slide for 16 h to promote adherence. Concentrated stock solutions of fluorescent probes in DMSO were serially diluted 500-fold in serum-free DMEM medium to afford 2× stock solutions (0.2% DMSO). Half of the cell culture medium (150 μL) was carefully removed by pipet and gently replaced with the 2× stock solution of the probe in serum-free medium (final [FBS]˜5%). Cells were treated with probes (2 μM) at 37° C. for 2 h before imaging by microscopy. Laser power and PMT gain settings were identical for all images and controls within a given experiment for accurate comparisons of cellular fluorescence.

murine PKCβI-mVenus = biological target: T3, murine PKCβI-mVenus (Mus musculus, UniProt P68404); test: FPCBA saturation binding, HEK293 cells expressing PKCβI-mVenus (Example 3); conditions: BIM1 2 μM, 2 h at 37° C., 4% FBS
T3 construct: fused on or other part: mVenus at the C-terminus
T3 sequence (P68404 2-621 limits assumed): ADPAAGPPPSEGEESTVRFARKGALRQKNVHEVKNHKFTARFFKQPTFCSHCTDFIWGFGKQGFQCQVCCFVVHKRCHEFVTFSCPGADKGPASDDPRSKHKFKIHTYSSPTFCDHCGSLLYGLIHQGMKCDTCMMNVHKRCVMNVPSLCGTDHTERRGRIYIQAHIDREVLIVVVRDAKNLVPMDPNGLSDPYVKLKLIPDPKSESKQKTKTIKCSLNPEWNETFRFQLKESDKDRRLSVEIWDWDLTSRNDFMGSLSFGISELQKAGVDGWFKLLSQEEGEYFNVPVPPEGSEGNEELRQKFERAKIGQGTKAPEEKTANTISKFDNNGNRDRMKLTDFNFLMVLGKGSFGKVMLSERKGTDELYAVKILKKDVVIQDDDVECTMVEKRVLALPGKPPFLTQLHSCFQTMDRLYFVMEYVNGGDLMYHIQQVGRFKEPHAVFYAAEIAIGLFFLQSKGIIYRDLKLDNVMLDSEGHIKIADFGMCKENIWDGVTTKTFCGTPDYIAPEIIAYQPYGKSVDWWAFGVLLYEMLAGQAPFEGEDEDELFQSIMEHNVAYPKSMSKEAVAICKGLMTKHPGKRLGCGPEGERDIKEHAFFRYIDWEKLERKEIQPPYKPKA
From the text: as §1

[10] = biological target: PKC 11 (C1B domain, tyrosine at the 22 position); conditions: phosphatidyl serine present, read-out: binding affinity (Kd) for DAG, cited from earlier work

Compound: NC(=O)c1cc2c3ccccc3ccn2c1-c1ccccc1 [NSC 93427]
- inhibition of cellular fluorescence ([1]; 10 μM): nearly complete inhibition
- IC50 ([1]; HeLa cells, PB-GABA-Taxol): < 1000 nM
- cooperativity factor α [2]: 0.02
- Kb ([2]; read-out: cellular Kb (allosteric modulator)): 485 nM and 483 nM
- fluorescent microtubule phenotype [3]: dose-dependent disruption of microtubules

Compound: CC(=O)O[C@H]1C(=O)[C@]2(C)[C@@H](OC(=O)CCCNC(=O)c3cc4cc(F)c(O)c(F)c4oc3=O)C[C@H]3OC[C@@]3(OC(C)=O)[C@H]2[C@H](OC(=O)c2ccccc2)[C@]2(O)C[C@H](OC(=O)[C@H](O)[C@@H](NC(=O)c3ccccc3)c3ccccc3)C(C)=C1C2(C)C [PB-GABA-Taxol]
- Kd [4]: 265 nM
- cells remaining viable (HeLa cells [5]; 37° C., verapamil 100 μM): > 90%
- changes in viability (HeLa cells [5]; binding assay conditions, even with 100 μM paclitaxel): less than 10%
- half-time (t1/2) to equilibration of cellular fluorescence (HeLa cells [6]; 37° C., verapamil 100 μM): 0.55 h
- half-time (t1/2) to equilibration of cellular fluorescence (HeLa cells [6]; room temperature (23° C.)): 1.45 h
- reduction of apparent affinity by ligand depletion in 10% FBS ([7]; 10% FBS vs 4% or 1% FBS): 2 fold
- Kd ([7]; HeLa cells, 4% FBS, 37° C., verapamil 100 μM, 3 h, read-out: cellular Kd of PB-GABA-Taxol for microtubules): 1700 ± 400 nM

Compound: COc1cc2c(c(OC)c1OC)-c1ccc(OC)c(=O)cc1[C@@H](NC(C)=O)CC2 [colchicine]
- IC50 at 48 h ([8]; with verapamil 25 µM, verapamil 25 μM): 13 ± 0.4 nM
- IC50 at 48 h ([8]; without verapamil): 20 ± 8 nM

Compound: CCCCCCN(CCCCCCCCCCCCNC(=O)c1cc2ccc(O)cc2oc1=O)C(=O)O[C@@]12[C@H](O)[C@@H](C)[C@@]3(O)[C@@H](C=C(CO)C[C@]4(O)C(=O)C(C)=C[C@@H]34)[C@@H]1C2(C)C [probe 2, (1aR,1bS,4aR,7aS,7bS,8R,9R,9aS)-4a,7b,9-trihydroxy-3-(hydroxymethyl)-1,1,6,8-tetramethyl-5-oxo-1,1a,1b,4,4a,5,7a,7b,8,9-decahydro-9aH-cyclopropa[3,4]benzo[1,2-e]azulen-9a-yl hexyl(12-(7-hydroxy-2-oxo-2H-chromene-3-carboxamido)dodecyl)carbamate]
- half-time (t1/2) of cellular uptake in transfected cells [9]: 0.233 h
- translocation of PKCβI-mVenus (PKCβI-mVenus): translocated to cellular membranes
- Cellular Kd for probe, PKCβI-mVenus (murine PKCβI-mVenus): prevented reliable measurements of cellular affinity

Compound: CCCCCCN(CCCCCCCCCCCCNC(=O)c1cc2ccc(N(CC)CC)cc2oc1=O)C(=O)O[C@@]12[C@H](O)[C@@H](C)[C@@]3(O)[C@@H](C=C(CO)C[C@]4(O)C(=O)C(C)=C[C@@H]34)[C@@H]1C2(C)C [probe 3, (1aR,1bS,4aR,7aS,7bS,8R,9R,9aS)-4a,7b,9-trihydroxy-3-(hydroxymethyl)-1,1,6,8-tetramethyl-5-oxo-1,1a,1b,4,4a,5,7a,7b,8,9-decahydro-9aH-cyclopropa[3,4]benzo[1,2-e]azulen-9a-yl (12-(7-(diethylamino)-2-oxo-2H-chromene-3-carboxamido)dodecyl)(hexyl)carbamate]
- half-time (t1/2) of cellular uptake in transfected cells [9]: > 1.67 h
- translocation of PKCβI-mVenus (PKCβI-mVenus): translocated to cellular membranes

Compound: diacylglycerol [DAG]
- Kd ([10]; tyrosine at the 22 position): 780000 nM
- Kd ([10]; tyrosine changed into tryptophan): 24000 nM
